Laboratory results published in patent publication US6967196B1, “Sulfonamide compounds and uses thereof” (Bristol-Myers Squibb Company, priority 1999, dated 2005).
Read-outs that look alike come from different tables or passages of the source.

System: amyloid β production in transfected H4 (human neuroglioma) cells stably expressing APP constructs
Experiment: In vitro cell-based assay of inhibitors of amyloid β production (ELISA)
Conditions: transfected H4 cells stably expressing APP constructs, approximately 16 hours incubation, amyloid β in medium by ELISA, read-out: ACTIVITY (IC50, inhibition of amyloid β production)
In short: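 Aβ secreted into the medium was read by sandwich ELISA (monoclonal capture for the Aβ C-terminus, polyclonal detection for the N-terminus) and calibrated on a standard curve. Before this, APP-expressing H4 cells were exposed to compound for ~16 h at an initial 10-100 μM, with actives then retested in dose-response.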

SMILES	IC50 [nM]	IC50 (Homo sapiens, 16 h) [nM]
C[C@H](CCSCC(=O)O)N(c1cc(Cl)ccc1Cl)S(=O)(=O)c1ccc(Cl)cc1 [Example 1181, (6R)-6-[(2,5-dichlorophenyl)-[(4-chlorophenyl)sulfonyl]-amino]-3-thioheptanoic acid]	≤ 25	
CC(C)C[S+]([O-])CCC[C@@H](C)N(c1cc(Cl)ccc1Cl)S(=O)(=O)c1ccc(Cl)cc1 (stereo partly shown) [Example 1182]	≤ 25	
CCSCCC[C@@H](C)N(c1cc(Cl)ccc1Cl)S(=O)(=O)c1ccc(Cl)cc1 [Example 1183, 4-chloro-N-[2,5-dichlorophenyl]-N-[1(R)-methyl-(4-ethylthio)butyl]benzenesulfonamide]	≤ 25	
CC(C)CS(=O)(=O)CCC[C@@H](C)N(c1cc(Cl)ccc1Cl)S(=O)(=O)c1ccc(Cl)cc1 [Example 1184]	25 to 50	
CC[C@H](CSCC(=O)O)N(c1cc(Cl)ccc1Cl)S(=O)(=O)c1ccc(Cl)cc1 [Example 1186, (5R)-5-[(2,5-dichlorophenyl)-[(4-chlorophenyl)sulfonyl]-amino]-3-thioheptanoic acid]	25 to 50	
COC(=O)C[S+]([O-])CC[C@@H](C)N(c1cc(Cl)ccc1Cl)S(=O)(=O)c1ccc(Cl)cc1 (stereo partly drawn) [Example 1187, methyl(6R)-6-[(2,5-dichlorophenyl)-[(4-chlorophenyl)sulfonyl]-amino]-3-thioheptanoic acid, 3-oxide]	50 to 100	
CC(C)CSCCC[C@@H](C)N(c1cc(Cl)ccc1Cl)S(=O)(=O)c1ccc(Cl)cc1 [Example 1188]	100 to 500	
CCSCC[C@@H](C)N(c1cc(Cl)ccc1Cl)S(=O)(=O)c1ccc(Cl)cc1 [Example 1189, 4-chloro-N-[2,5-dichlorophenyl]-N-[1(R)-methyl-(3-ethylthio)propyl]benzenesulfonamide]	100 to 500	
CC(C)SCCC[C@@H](C)N(c1cc(Cl)ccc1Cl)S(=O)(=O)c1ccc(Cl)cc1 [Example 1190]	100 to 500	
COC(=O)CS(=O)(=O)CC[C@@H](C)N(c1cc(Cl)ccc1Cl)S(=O)(=O)c1ccc(Cl)cc1 [Example 1191, methyl(6R)-6-[(2,5-dichlorophenyl)-[(4-chlorophenyl)sulfonyl]-amino]-3-thioheptanoic acid, 3,3-dioxide]	100 to 500	
C[C@H](CCCS(=O)(=O)O)N(c1cc(Cl)ccc1F)S(=O)(=O)c1ccc(Cl)cc1 [Example 1192, (4R)-4-[N-[5-chloro-2-fluorophenyl][(4-chlorophenyl)sulfonyl]amino]pentylsulfonic acid]		100 to 500
COC(=O)C[S+]([O-])CC[C@@H](C)N(c1cc(Cl)ccc1Cl)S(=O)(=O)c1ccc(Cl)cc1 (stereo partly drawn) [Example 1193, methyl(6R)-6-[(2,5-dichlorophenyl)-[(4-chlorophenyl)sulfonyl]-amino]-3-thioheptanoic acid, 3-oxide]	100 to 500	
C[C@H](CCCS(=O)(=O)O)N(c1cc(Cl)ccc1Cl)S(=O)(=O)c1ccc(Cl)cc1 [Example 1194, (4R)-4-[N-[2,5-dichlorophenyl][(4-chlorophenyl)sulfonyl]amino]pentylsulfonic acid]		100 to 500
COS(=O)(=O)CCC[C@@H](C)N(c1cc(Cl)ccc1Cl)S(=O)(=O)c1ccc(Cl)cc1 [Example 1195, methyl(4R)-4-[N-[2,5-dichlorophenyl][(4-chlorophenyl)sulfonyl]amino]pentylsulfonate]		> 500
C[C@H](CC[S+]([O-])CC(=O)O)N(c1cc(Cl)ccc1Cl)S(=O)(=O)c1ccc(Cl)cc1 (stereo partly drawn) [Example 1196, (6R)-6-[(2,5-dichlorophenyl)-[(4-chlorophenyl)sulfonyl]-amino]-3-thioheptanoic acid, 3-oxide]	> 500	
C[C@H](CCS(=O)(=O)CC(=O)O)N(c1cc(Cl)ccc1Cl)S(=O)(=O)c1ccc(Cl)cc1 [Example 1197, (6R)-6-[(2,5-dichlorophenyl)-[(4-chlorophenyl)sulfonyl]-amino]-3-thioheptanoic acid, 3,3-dioxide]	> 500	
C[C@H](CCCS(=O)(=O)N1CCC1)N(c1cc(Cl)ccc1Cl)S(=O)(=O)c1ccc(Cl)cc1 [Example 1198, 4-chloro-N-[2,5-dichlorophenyl]-N-[4-[(1-azetidinyl)sulfonyl]-1(R)-methylbutyl]benzenesulfonamide]		≤ 25
CNS(=O)(=O)CCC[C@@H](C)N(c1cc(Cl)ccc1Cl)S(=O)(=O)c1ccc(Cl)cc1 [Example 1199, 4-chloro-N-[2,5-dichlorophenyl]-N-[4-[(methylamino)sulfonyl]-1(R)-methylbutyl]benzenesulfonamide]		≤ 25
C[C@H](CCCS(=O)(=O)N1CCC1)N(c1cc(F)ccc1F)S(=O)(=O)c1ccc(Cl)cc1 [Example 1200, 4-chloro-N-[2,5-difluorophenyl]-N-[4-[(1-azetidinyl)sulfonyl]-1(R)-methylbutyl]benzenesulfonamide]		≤ 25
C[C@H](CCCS(=O)(=O)N(C)C)N(c1cc(Cl)ccc1Cl)S(=O)(=O)c1ccc(Cl)cc1 [Example 1201, 4-chloro-N-[2,5-dichlorophenyl]-N-[4-[(dimethylamino)sulfonyl]-1(R)-methylbutyl]benzenesulfonamide]		≤ 25
C[C@H](CCCS(=O)(=O)N(C)C)N(c1cc(Cl)ccc1F)S(=O)(=O)c1ccc(Cl)cc1 [Example 1202, 4-chloro-N-(5-chloro-2-fluorophenyl)-N-[4-[(dimethylamino)sulfonyl]-1(R)-methylbutyl]benzenesulfonamide]		≤ 25
CNS(=O)(=O)CCC[C@@H](C)N(c1cc(Cl)ccc1F)S(=O)(=O)c1ccc(Cl)cc1 [Example 1203, 4-chloro-N-(5-chloro-2-fluorophenyl)-N-[4-[(methylamino)sulfonyl]-1(R)-methylbutyl]benzenesulfonamide]		≤ 25
C[C@H](CCCS(=O)(=O)N1CCCC1)N(c1cc(Cl)ccc1Cl)S(=O)(=O)c1ccc(Cl)cc1 [Example 1204, 4-chloro-N-[2,5-dichlorophenyl]-N-[4-[(1-pyrrolidinyl)sulfonyl]-1(R)-methylbutyl]benzenesulfonamide]		≤ 25
C[C@H](CCCS(=O)(=O)N1CCCC1)N(c1cc(Cl)ccc1F)S(=O)(=O)c1ccc(Cl)cc1 [Example 1205, 4-chloro-N-(5-chloro-2-fluorophenyl)-N-[4-[(1-pyrrolidinyl)sulfonyl]-1(R)-methylbutyl]benzenesulfonamide]		≤ 25
C[C@H](CCCS(=O)(=O)N(C)C)N(c1cc(F)ccc1F)S(=O)(=O)c1ccc(Cl)cc1 [Example 1206, 4-chloro-N-[2,5-difluorophenyl]-N-[4-[(dimethylamino)sulfonyl]-1(R)-methylbutyl]benzenesulfonamide]		≤ 25
CNS(=O)(=O)CCC[C@@H](C)N(c1cc(F)ccc1F)S(=O)(=O)c1ccc(Cl)cc1 [Example 1207, 4-chloro-N-[2,5-difluorophenyl]-N-[4-[(methylamino)sulfonyl]-1(R)-methylbutyl]benzenesulfonamide]		≤ 25
CCNS(=O)(=O)CCC[C@@H](C)N(c1cc(Cl)ccc1Cl)S(=O)(=O)c1ccc(Cl)cc1 [Example 1208, 4-chloro-N-[2,5-dichlorophenyl]-N-[4-[(ethylamino)sulfonyl]-1(R)-methylbutyl]benzenesulfonamide]		≤ 25
C[C@H](CCCS(=O)(=O)N1CCOCC1)N(c1cc(Cl)ccc1Cl)S(=O)(=O)c1ccc(Cl)cc1 [Example 1209, 4-chloro-N-[2,5-dichlorophenyl]-N-[4-[(4-morpholinyl)sulfonyl]-1(R)-methylbutyl]benzenesulfonamide]		≤ 25
